# pEC50: −log10 of the molar value.
# System: genotype 1/2 chimeric cell culture derived HCV (HCVcc)
# Assay: Genotype 1/2 chimeric HCVcc assay (nano-luciferase, HCV replication)
# Format: cell-based
# Details: Anti-HCVcc genotype 1/2 activity; Huh-7.5 cells, 72 h post infection, nano-luciferase
# Experimental: Naïve Huh-7.5 target cells were plated at 2400 cells/well in 25 μL of culture media in 384-well plates (Greiner bio-one, μ clear black). After overnight incubation, compounds serially diluted in 10 μL of cell culture media were added. After 2 h compound treatment, cells were inoculated with 40 μL of genotype 1/2 chimeric cell culture derived HCV (HCVcc) which express structural proteins of an HCV genotype 1a isolate (TN accession number EF621489) and non-structural proteins of HCV genotype 2a (JFH-1) with nano-luciferase reporter. At 72 h post infection, nano-luciferase activity (Nano-Glo™, Promega) and cellular ATP (Cell titer-Glo™, Promega) were measured as a marker for HCV replication and cytotoxicity, respectively. EC50 and CC50 were calculated by non-linear regression analyzing using GraphPad Prism (GraphPad Software).
row,Compound,pEC50
1,CCOC(=O)c1c(NC(=O)NCc2c(C(F)(F)F)sc3c2CCN(C(=O)[C@H](C)N)C3)sc2c1CCCC2 [Compound 328],> 7.00

# Same assay, conditions: Hepatitis C virus
row,Compound,pEC50
1,O=C(NCCCN1CCC(N2CCCCC2)CC1)c1ccc(-c2cccc(N3CCOCC3)c2)cc1 [Compound 1142],5.00 to 6.00
2,O=C(NCCCN1CCC(N2CCCCC2)CC1)c1ccc(C2CCCCC2)cc1 [Compound 1003],6.00 to 7.00
3,O=C(NCCCN1CCC(N2CCCCC2)CC1)c1ccc(-c2ccc(C(F)(F)F)cc2)cc1C(F)(F)F [Compound 1104],6.00 to 7.00
4,O=S(=O)(NCCCN1CCC(N2CCCCC2)CC1)c1ccc(-c2ccc(C(F)(F)F)cc2)cc1 [Compound 1093],6.00 to 7.00
5,O=C(NCCCN1CCC(N2CCCCC2)CC1)c1ccc(-c2cccc([N+](=O)[O-])c2)cc1 [Compound 1147],6.00 to 7.00
6,O=C(NCCCN1CCC(N2CCCCC2)CC1)c1ccc(-c2ccncc2)cc1 [Compound 1024],< 5.00
7,O=C(NCCCN1CCC(N2CCCCC2)CC1)c1ccc(-c2ccc3occc3c2)cc1 [Compound 1126],6.00 to 7.00
8,O=C(NCCCN1CCC(N2CCCCC2)CC1)c1cc(-c2ccc(C(F)(F)F)cc2)cs1 [Compound 1082],6.00 to 7.00
9,O=C(CCCN1CCC(N2CCCCC2)CC1)Nc1ccc(-c2ccc(C(F)(F)F)cc2)c(C(F)(F)F)c1 [Compound 1158],6.00 to 7.00
10,Cc1ccccc1-c1ccc(C(=O)NCCCN2CCC(N3CCCCC3)CC2)cc1 [Compound 1015],6.00 to 7.00
11,O=C(NCCCN1CCC(N2CCCCC2)CC1)c1ccc(-c2ccc3c(c2)OCO3)cc1 [Compound 1130],6.00 to 7.00
12,O=C(NCCCN1CCC(C2CCCCC2)CC1)c1ccc(Oc2ccccc2)cc1 [Compound 1071],5.00 to 6.00
13,O=C(NC/C=C/CN1CCC(N2CCCCC2)CC1)c1ccc(-c2ccc(C(F)(F)F)cc2)cc1 [Compound 1117],6.00 to 7.00
14,COc1cccc(Oc2ccc(C(=O)NCCCN3CCC(N4CCCCC4)CC3)cc2)c1 [Compound 1064],< 5.00
15,O=C(NCCCN1CCC(N2CCCCC2)CC1)c1ccc(-c2ccc(S(=O)(=O)N3CCOCC3)cc2)cc1 [Compound 1144],5.00 to 6.00
16,O=C(NCCCN1CCC(N2CCCCC2)CC1)c1ccc(Oc2cccc(C(F)(F)F)c2)cc1 [Compound 1108],6.00 to 7.00
17,O=C(NCCN1CCC(N2CCCCC2)CC1)c1ccc(Oc2ccccc2)cc1 [Compound 1044],5.00 to 6.00
18,O=C(NCCC(=O)N1CCC(N2CCCCC2)CC1)c1ccc(Oc2ccccc2)cc1 [Compound 1053],5.00 to 6.00
19,O=C(NCCCN1CCC(N2CCCCC2)CC1)Nc1ccc(-c2ccc(C(F)(F)F)cc2)cc1 [Compound 1118],6.00 to 7.00
20,O=C(NCCCN1CCC(N2CCCCC2)CC1)c1ccc(-c2ccc(C(F)(F)F)cc2)c(Cl)c1 [Compound 1085],6.00 to 7.00
21,O=C(NCCCN1CCC(N2CCCCC2)CC1)c1ccc(Oc2ccc(C(F)(F)F)cc2)cc1 [Compound 1111],6.00 to 7.00
22,Cc1cc(-c2ccc(C(F)(F)F)cc2)ccc1C(=O)NCCCN1CCC(N2CCCCC2)CC1 [Compound 1156],6.00 to 7.00

# Same assay, conditions: Hepatitis C virus, Huh7.5, 72 h
row,Compound,pEC50
1,CCOC(=O)c1c(NC(=O)NCc2c(-n3cccc3)sc3c2CCN(C(C)=O)C3)sc2c1CCCC2 [Compound 20],> 7.00
2,CCN(C)Cc1sc(-n2cccc2)c(CNC(=O)Nc2sc3c(c2C(=O)OC(C)(C)C)CCCC3)c1C [Compound 136],> 7.00
3,C=CCCOC(=O)c1c(NC(=O)NCc2c(Br)sc3c2CCNC3)sc2c1CCCC2 [Compound 274],> 7.00
4,CN1CCc2c(sc(-n3cccc3)c2CNC(=O)Nc2sc3c(c2C(=O)OC(C)(C)C)CCC3)C1 [Compound 298],> 7.00
5,Cc1sc(NC(=O)NCc2c(-c3ccc(F)cc3)sc3c2CCNC3)c(C(=O)OC(C)(C)C)c1C [Compound 368],6.00 to 7.00
6,CC(C)(C)OC(=O)c1c(NC(=O)NCc2c(-c3cccc(C#N)c3)sc3c2CCNC3)sc2c1CCCC2 [Compound 229],6.00 to 7.00
7,Cc1sc(NC(=O)NCc2c(-c3ccoc3)sc3c2CCNC3)c(C(=O)OC(C)(C)C)c1C [Compound 332],> 7.00
8,CC(C)(C)OC(=O)c1c(NC(=O)NCc2c(Br)sc3c2CCNC3)sc2c1CCC2 [Compound 224],> 7.00
9,CC(C)(C)OC(=O)c1c(NC(=O)NCc2c(-n3cccc3)sc3c2CCN(C2COC2)C3)sc2c1CCCC2 [Compound 261],> 7.00
10,CCOC(=O)c1c(NC(=O)NCc2c(-n3cccc3)sc3c2CCN(CC)C3)sc(C(C)=O)c1C [Compound 39],> 7.00
11,O=C(NCc1c(-n2cccc2)sc2c1CCNC2)Nc1sc2c(c1C(=O)OC1CCCCC1)CCCC2 [Compound 273],> 7.00
12,Cc1sc(NC(=O)NCc2c(-n3cccc3)sc3c2CCN(C)C3)c(C(=O)OC(C)(C)C)c1C [Compound 69],> 7.00
13,CCOC(=O)c1c(NC(=O)NCc2c(-n3cccc3)sc3c2CCNC3)sc2c1CCCC2 [Compound 61],> 7.00
14,CCOC(=O)c1c(NC(=O)NCc2c(-n3c(C)ccc3C)sc3c2CCN(CC)C3)sc2c1CCCC2 [Compound 51],> 7.00
15,Cc1nnc(-c2c(NC(=O)NCc3c(Br)sc4c3CCNC4)sc(C)c2C)o1 [Compound 162],> 7.00
16,CCN1CCc2c(sc(Br)c2CNC(=O)Nc2sc3c(c2C(=O)OC(C)C)CCCC3)C1 [Compound 174],> 7.00
17,CCOC(=O)c1c(NC(=S)NCc2c(-n3cccc3)sc3c2CCN(CC)C3)sc2c1CCCC2 [Compound 44],> 7.00
18,CN1CCc2c(sc(-n3cccc3)c2CNC(=O)Nc2sc3c(c2C(=O)OC(C)(C)C)CCCCC3)C1 [Compound 301],> 7.00
19,CCOC(=O)c1c(NC(=O)NCc2c(C(F)(F)F)sc3c2CCN(C(=O)[C@H](C)N)C3)sc2c1CCCC2 [Compound 327],> 7.00
20,CCOC(=O)c1c(NC(=O)NCc2c(-n3cccc3)sc3c2CCCNC3)sc2c1CCCC2 [Compound 243],> 7.00
21,CCOC(=O)c1c(NC(=O)NCc2c(-n3cccc3)sc3c2CCN(CC)C3)sc(OC)c1C [Compound 32],6.00 to 7.00
22,CC(C)(C)OC(=O)c1c(NC(=O)NCc2c(-c3cncc(F)c3)sc3c2CCNC3)sc2c1CCCC2 [Compound 248],> 7.00
23,CC(C)OC(=O)c1c(NC(=O)NCc2c(C(F)(F)F)sc3c2CCNC3)sc2c1CCCC2 [Compound 167],> 7.00
24,CCOC(=O)c1c(NC(=O)NCc2c(-n3cccc3)sc3c2CCN(CC)C3)sc(C(=O)N(C)C)c1C [Compound 58],5.00 to 6.00

row,Compound,pEC50
1,CC(C)(C)OC(=O)c1c(NC(=O)NCc2c(-c3cccc(O)c3)sc3c2CCNC3)sc2c1CCCC2 [Compound 252],6.00 to 7.00
2,O=C(NCc1c(-c2ccco2)sc2c1CCNC2)Nc1sc2c(c1C(=O)OC1CCOC1)CCCC2 (centres unmarked) [Compound 342],> 7.00
3,CCOC(=O)c1c(NC(=O)NCc2ccc(N(C)C)cc2)sc2c1CCCC2 [Compound 103],> 7.00
4,CC(C)(C)OC(=O)c1c(NC(=O)NCc2c(-c3ccnc(Cl)c3)sc3c2CCNC3)sc2c1CCCC2 [Compound 308],> 7.00
5,CCOC(=O)c1c(NC(=O)NCc2c(-n3cccc3)sc3c2CCCN3)sc2c1CCCC2 [Compound 101],6.00 to 7.00
6,Cc1sc(NC(=O)NCc2c(-c3ccc(Cl)cc3)sc3c2CCNC3)c(C(=O)OC(C)(C)C)c1C [Compound 369],> 7.00
7,CCOC(=O)c1c(NC(=O)NCc2c(-n3cccc3)sc3c2CCNC3)sc2c1CCCCC2 [Compound 113],6.00 to 7.00
8,CC1CCc2c(sc(NC(=O)NCc3c(Br)sc4c3CCNC4)c2C(=O)OC(C)(C)C)C1 (centres unmarked) [Compound 213],> 7.00
9,O=C(NCc1c(C(F)(F)F)sc2c1CCNC2)Nc1sc2c(c1C(=O)OC1CCOC1)CCCC2 (centres unmarked) [Compound 326],> 7.00
10,CC(C)(C)OC(=O)c1c(NC(=O)NCc2c(-c3ccccc3)sc3c2CCNC3)sc2c1CCCC2 [Compound 130],> 7.00
11,N#Cc1c(NC(=O)NCc2c(-n3cccc3)sc3c2CCCC3)sc2c1CCCC2 [Compound 6],5.00 to 6.00
12,CC(C)(C)OC(=O)c1c(NC(=O)NCc2c(-n3cccc3)sc3c2CCN(C(C)(C)C)C3)sc2c1CCCC2 [Compound 99],> 7.00
13,CC(C)(C)OC(=O)c1c(NC(=O)NCc2c(Br)sc3c2CCNC3)sc2c1CCOC2 [Compound 239],> 7.00
14,CCOC(=O)c1c(NC(=O)NCc2c(Br)sc3c2CCNC3)sc(C)c1C [Compound 133],> 7.00
15,CCOC(=O)c1c(NC(=O)NCc2c(-n3cccc3)sc3c2CCN(CC)C3)sc2c1CCC(C)C2 (centres unmarked) [Compound 153],> 7.00
16,COC(=O)c1c(NC(=O)NCc2c(C(F)(F)F)sc3c2CCNC3)sc2c1CCCC2 [Compound 129],> 7.00
17,O=C(NCc1c(-c2ccoc2)sc2c1CCNC2)Nc1sc2c(c1C(=O)OC1CCCC1)CCCC2 [Compound 344],> 7.00
18,CCOC(=O)c1c(NC(=O)NCc2c(C(F)(F)F)sc3c2CCNC3)sc2c1CCC(C)C2 (centres unmarked) [Compound 166],> 7.00
19,CC(C)(C)OC(=O)c1c(NC(=O)NCc2c(-n3cccc3)sc3c2CCNC3)sc2c1CCCC2 [Compound 106],> 7.00
20,CCOC(=O)c1c(NC(=O)NCc2c(-n3cccc3)sc3c2CCCN3C(=O)OC(C)(C)C)sc2c1CCCC2 [Compound 100],< 5.00
21,CCOC(=O)c1cc(C(C)C)sc1NC(=O)NCc1c(-n2cccc2)sc2c1CCN(CC)C2 [Compound 24],6.00 to 7.00
22,CCN1CCc2c(sc(Br)c2CNC(=O)Nc2sc3c(c2C(=O)OC(C)(C)C)CCCCC3)C1 [Compound 280],> 7.00
23,CCOC(=O)c1c(NC(=O)NCc2c(-n3cccc3)sc(CN(C)C)c2C)sc2c1CCCC2 [Compound 22],> 7.00
24,CC(C)(C)OC(=O)c1c(NC(=O)NCc2c(C(F)(F)F)sc3c2CCNC3)sc2c1CCCC2 [Compound 117],> 7.00

# — patent US9809602B2, “Compounds for treating viral infections” (INSTITUT PASTEUR KOREA, priority 2014, dated 2017)
